Here are results for 28 compounds from US9745266B2 (THE REGENTS OF THE UNIVERSITY OF COLORADO, A BODY CORPORATE, priority 2013, dated 2017).

A word on the GI50: it is the concentration at which growth is held to half of that of the control. As a reminder, the MIC is the least concentration at which growth counts as inhibited.

Converted amounts (≈) assume the structure as drawn.

Tested on in the first data set: not listed separately
The experiment in a line: Mammalian cytotoxicity, CellTiter-Glo viability assay. The data set is classed as cell-based, human. The following applies: human, HeLa cells. As to the method:
To evaluate the cytotoxicity of Of1 in mammalian cells, a cell viability assay was carried out using CellTiter-Glo luminescent cell viability assay kit (Promega). Human cervixcal adenocarcinoma HeLa cells were seeded on white, cell-culture treated 96-well plates (Corning: 3917) with Dulbecco's modified Eagle's medium (DMEM) supplemented with 10% fetal calf serum (FCS), 1% penicillin/streptomycin, at the densities of 20,000 cells/well. The medium volume for each well was 100 μL. Cells were incubated at 37° C. in 5% CO2/95% air for 16 hours. The medium was removed from each well and replaced with 99 μL of warmed fresh medium. To each well, 1 μL of Of1 analog was added in DMSO to final concentrations of 0.5-32 μg/mL. Each series was performed in triplicate. After incubation at 37° C. for another 24 hours, the plates were equilibrated to room temperature for 30 minutes. 100 μL of CellTiter-Glo reagent (Promega) was added to each well and mixed for 2 minutes on an orbital shaker. The plate was incubated at room temperature for another 10 minutes to stabilize luminescent signal. The luminescence of each sample was recorded in an Envision Multilabel Plate Reader (Perkin Elmer).
Background: Cellular ATP, detected with luciferase, serves as a proxy for viable cell number.
In the case of `C=C1CCC[C@@H]2Nc3c(F)cc(Br)cc3[C@]12CCNS(=O)(=O)c1ccc(OC(F)F)c(Cl)c1` (relative stereo), the GI50 at 24 h worked out at 15.4 µg/mL (≈ 27.2 µM). `C=C1CCCC2Nc3ccc(Cl)cc3C12CCNS(=O)(=O)c1ccc(Cl)cc1` (stereo not drawn) [Cpd 6a, 4-Chloro-N-[2-(6-chloro-4-methylidene-2,3,4,4a,9,9a-hexahydro-1H-carbazol-4a-yl)ethyl]benzene-1-sulfonamide] showed a GI50 at 24 h of 35 µg/mL (≈ 80 µM). Still for that read-out and setting: then `C=C1CCCC2Nc3c(Cl)cc(Cl)cc3C12CCNS(=O)(=O)c1ccc(Cl)cc1` (stereo not drawn) [Cpd 6k, 4-Chloro-N-[2-(6,8-dichloro-4-methylidene-2,3,4,4a,9,9a-hexahydro-1H-carbazol-4a-yl)ethyl]benzene-1-sulfonamide], with 13.6 µg/mL (≈ 28.8 µM); and `C=C1CCCC2Nc3c(F)cc(Br)cc3C12CCNS(=O)(=O)c1ccc(Cl)cc1` (stereo not drawn) [Cpd 6l, N-[2-(6-bromo-8-fluoro-4-methylidene-2,3,4,4a,9,9a-hexahydro-1H-carbazol-4a-yl)ethyl]-4-chlorobenzene-1-sulfonamide], with 18.1 µg/mL (≈ 36.2 µM); and `C=C1CCCC2Nc3ccc(Br)cc3C12CCNS(=O)(=O)c1ccc(Br)cc1` (stereo not drawn) [Cpd 12g, 4-Bromo-N-[2-(6-bromo-4-methylidene-2,3,4,4a,9,9a-hexahydro-1H-carbazol-4a-yl)ethyl]benzene-1-sulfonamide], with 40 µg/mL (≈ 76 µM). Take `C=C1CCCC2Nc3ccc(Br)cc3C12CCNS(=O)(=O)c1ccc(I)cc1` (stereo not drawn) [Cpd 12h, N-[2-(6-bromo-4-methylidene-2,3,4,4a,9,9a-hexahydro-1H-carbazol-4a-yl)ethyl]-4-iodobenzene-1-sulfonamide]: growth was halved (GI50 at 24 h) at 33 µg/mL (≈ 57.6 µM). Compound `C=C1CCCC2Nc3ccc(Br)cc3C12CCNS(=O)(=O)c1ccc(Cl)c(Cl)c1` (stereo not drawn) [Cpd 12i, N-[2-(6-bromo-4-methylidene-2,3,4,4a,9,9a-hexahydro-1H-carbazol-4a-yl)ethyl]-3,4-dichlorobenzene-1-sulfonamide] displayed a GI50 at 24 h of 12.8 µg/mL (≈ 24.8 µM). Still for that read-out and setting: then `C=C1CCCC2Nc3c(F)cc(Br)cc3C12CCNS(=O)(=O)c1ccc(OC)cc1` (stereo not drawn) [Cpd 13a, N-[2-(6-bromo-8-fluoro-4-methylidene-2,3,4,4a,9,9a-hexahydro-1H-carbazol-4a-yl)ethyl]-4-methoxybenzene-1-sulfonamide], with 49 µg/mL (≈ 98.9 µM). Still for that read-out and setting: next, `C=C1CCCC2Nc3c(F)cc(Br)cc3C12CCNS(=O)(=O)c1ccc(C)cc1` (stereo not drawn) [Cpd 13b, N-[2-(6-bromo-8-fluoro-4-methylidene-2,3,4,4a,9,9a-hexahydro-1H-carbazol-4a-yl)ethyl]-4-methylbenzene-1-sulfonamide]: 22 µg/mL (≈ 45.9 µM); `C=C1CCCC2Nc3c(F)cc(Br)cc3C12CCNS(=O)(=O)c1ccc(F)cc1` (stereo not drawn) [Cpd 13c, N-[2-(6-bromo-8-fluoro-4-methylidene-2,3,4,4a,9,9a-hexahydro-1H-carbazol-4a-yl)ethyl]-4-fluorobenzene-1-sulfonamide]: 18.3 µg/mL (≈ 37.9 µM).

`C=C1CCCC2Nc3c(F)cc(Br)cc3C12CCNS(=O)(=O)c1ccc(Br)cc1` (stereo not drawn) [Cpd 13d, 4-Bromo-N-[2-(6-bromo-8-fluoro-4-methylidene-2,3,4,4a,9,9a-hexahydro-1H-carbazol-4a-yl)ethyl]benzene-1-sulfonamide]: the GI50 at 24 h was 22 µg/mL (≈ 40.4 µM).

With `C=C1CCCC2Nc3c(F)cc(Br)cc3C12CCNS(=O)(=O)c1ccc(I)cc1` (stereo not drawn) [Cpd 13e, N-[2-(6-bromo-8-fluoro-4-methylidene-2,3,4,4a,9,9a-hexahydro-1H-carbazol-4a-yl)ethyl]-4-iodobenzene-1-sulfonamide], halving of growth (GI50 at 24 h) required 19.6 µg/mL (≈ 33.1 µM). Same read-out and setting: next, `C=C1CCCC2Nc3c(F)cc(Br)cc3C12CCNS(=O)(=O)c1ccc(Cl)c(Cl)c1` (stereo not drawn) [Cpd 13f, N-[2-(6-bromo-8-fluoro-4-methylidene-2,3,4,4a,9,9a-hexahydro-1H-carbazol-4a-yl)ethyl]-3,4-dichlorobenzene-1-sulfonamide]: 31 µg/mL (≈ 58 µM); `C=C1CCCC2Nc3c(F)cc(Br)cc3C12CCNS(=O)(=O)c1ccc(NC(C)=O)cc1` (stereo not drawn) [Cpd 13g, N-(4-{[2-(6-bromo-8-fluoro-4-methylidene-2,3,4,4a,9,9a-hexahydro-1H-carbazol-4a-yl)ethyl]sulfamoyl}phenyl)acetamide]: 32 µg/mL (≈ 61.3 µM); `C=C1CCCC2Nc3c(F)cc(Br)cc3C12CCNS(=O)(=O)c1ccc(C#N)cc1` (stereo not drawn) [Cpd 13h, N-[2-(6-bromo-8-fluoro-4-methylidene-2,3,4,4a,9,9a-hexahydro-1H-carbazol-4a-yl)ethyl]-4-cyanobenzene-1-sulfonamide]: 17 µg/mL (≈ 34.7 µM). In the case of `C=C1CCCC2Nc3c(F)cc(Br)cc3C12CCNS(=O)(=O)c1ccc(C(F)(F)F)cc1` (stereo not drawn) [Cpd 13i, N-[2-(6-bromo-8-fluoro-4-methylidene-2,3,4,4a,9,9a-hexahydro-1H-carbazol-4a-yl)ethyl]-4-(trifluoromethyl)benzene-1-sulfonamide], growth was halved (GI50 at 24 h) at 8.7 µg/mL (≈ 16.3 µM). Still for that read-out and setting: then `C=C1CCCC2Nc3c(F)cc(Br)cc3C12CCNS(=O)(=O)c1ccc(Br)c(Br)c1` (stereo not drawn) [Cpd 13j, 3,4-Dibromo-N-[2-(6-bromo-8-fluoro-4-methylidene-2,3,4,4a,9,9a-hexahydro-1H-carbazol-4a-yl)ethyl]benzene-1-sulfonamide], with 20 µg/mL (≈ 32.1 µM). For the compound `C=C1CCCC2Nc3c(F)cc(Br)cc3C12CCNS(=O)(=O)c1ccc(Br)c(F)c1` (stereo not drawn) [Cpd 13k, 4-Bromo-N-[2-(6-bromo-8-fluoro-4-methylidene-2,3,4,4a,9,9a-hexahydro-1H-carbazol-4a-yl)ethyl]-3-fluorobenzene-1-sulfonamide], growth was halved (GI50 at 24 h) at 17.5 µg/mL (≈ 31.1 µM).

For `C=C1CCCC2Nc3c(F)cc(Br)cc3C12CCNS(=O)(=O)c1ccc(Br)cc1C(F)(F)F` (stereo not drawn) [Cpd 13l, 4-Bromo-N-[2-(6-bromo-8-fluoro-4-methylidene-2,3,4,4a,9,9a-hexahydro-1H-carbazol-4a-yl)ethyl]-2-(trifluoromethyl)benzene-1-sulfonamide], the GI50 at 24 h came to 21 µg/mL (≈ 34.3 µM). Regarding `C=C1CCCC2Nc3c(F)cc(Br)cc3C12CCNS(=O)(=O)c1ccc(Br)c(C(F)(F)F)c1` (stereo not drawn) [Cpd 13m, 4-Bromo-N-[2-(6-bromo-8-fluoro-4-methylidene-2,3,4,4a,9,9a-hexahydro-1H-carbazol-4a-yl)ethyl]-3-(trifluoromethyl)benzene-1-sulfonamide], growth was halved (GI50 at 24 h) at 8.3 µg/mL (≈ 13.6 µM).

`C=C1CCCC2Nc3c(F)cc(Br)cc3C12CCNS(=O)(=O)c1ccc(Br)cc1C` (stereo not drawn) [Cpd 13n, 4-bromo-N-[2-(6-bromo-8-fluoro-4-methylidene-2,3,4,4a,9,9a-hexahydro-1H-carbazol-4a-yl)ethyl]-2-methylbenzene-1-sulfonamide] displayed a GI50 at 24 h of 13.5 µg/mL (≈ 24.2 µM). The same measure, in the same setting: then `C=C1CCCC2Nc3c(F)cc(Br)cc3C12CCNS(=O)(=O)c1ccc(Br)c(C)c1` (stereo not drawn) [Cpd 13o, 4-bromo-N-[2-(6-bromo-8-fluoro-4-methylidene-2,3,4,4a,9,9a-hexahydro-1H-carbazol-4a-yl)ethyl]-3-methylbenzene-1-sulfonamide], with 12.5 µg/mL (≈ 22.4 µM). `C=C1CCCC2Nc3c(F)cc(Br)cc3C12CCNS(=O)(=O)c1cc(Br)c(Br)s1` (stereo not drawn) [Cpd 13p, 4,5-dibromo-N-[2-(6-bromo-8-fluoro-4-methylidene-2,3,4,4a,9,9a-hexahydro-1H-carbazol-4a-yl)ethyl]thiophene-2-sulfonamide] yielded a GI50 at 24 h of 14.6 µg/mL (≈ 23.2 µM).

`C=C1CCCC2Nc3c(F)cc(Br)cc3C12CCNS(=O)(=O)c1cncc(Br)c1` (stereo not drawn) [Cpd 13q, 5-bromo-N-[2-(6-bromo-8-fluoro-4-methylidene-2,3,4,4a,9,9a-hexahydro-1H-carbazol-4a-yl)ethyl]pyridine-3-sulfonamide] gave a GI50 at 24 h of 11.2 µg/mL (≈ 20.5 µM). The same measure, in the same setting: next, `C=C1CCCC2Nc3c(F)cc(Br)cc3C12CCNS(=O)(=O)c1ccc(Cl)nc1` (stereo not drawn) [Cpd 13r, N-[2-(6-bromo-8-fluoro-4-methylidene-2,3,4,4a,9,9a-hexahydro-1H-carbazol-4a-yl)ethyl]-6-chloropyridine-3-sulfonamide]: 16.7 µg/mL (≈ 33.3 µM). On to `C=C1CCCC2Nc3c(F)cc(Br)cc3C12CCNS(=O)(=O)c1cn(C)cn1` (stereo not drawn) [Cpd 13s, N-[2-(6-bromo-8-fluoro-4-methylidene-2,3,4,4a,9,9a-hexahydro-1H-carbazol-4a-yl)ethyl]-1-methyl-1H-imidazole-4-sulfonamide], for which the GI50 at 24 h worked out at 23 µg/mL (≈ 49 µM).

With `C=C1CCCC2Nc3c(F)cc(Br)cc3C12CCNS(=O)(=O)c1cc2ccccc2o1` (stereo not drawn) [Cpd 13t, N-[2-(6-bromo-8-fluoro-4-methylidene-2,3,4,4a,9,9a-hexahydro-1H-carbazol-4a-yl)ethyl]-1-benzofuran-2-sulfonamide], the GI50 at 24 h is 12.3 µg/mL (≈ 24.3 µM).

In a further data set the test system is MRSA ATCC BAA-44. The experiment in a line: MIC, CLSI broth microdilution. The data set is classed as cell-based, S. aureus. The following applies: Staphylococcus aureus; MRSA ATCC BAA-44, compound alone; read-out: MIC. (In broth dilution the organism is exposed to a series of concentrations in liquid medium.)
As to `Cc1nnc(SCC2=C(C(=O)O)N3C(=O)[C@@H](NC(=O)Cn4cnnn4)[C@H]3SC2)s1` [cefazolin], the MIC is 128 µg/mL (≈ 282 µM).

The test system of another data set is MRSA ATCC BAA-44. The experiment in a line: MIC in the presence of 20 μM Of1 / alkaloid. The data set is classed as cell-based, S. aureus. The following applies: MIC / MIC (+20 μM Of1), MRSA ATCC BAA-44. On the procedure:
Indoline alkaloid compounds were then screened for the ability to potentiate the activity of methicillin against MRSA. A multi-drug resistant MRSA strain (ATCC: BAA-44) was selected for the initial screening. […] To each well, 20 μM of each individual indoline alkaloid was added and the plates were incubated at 37° C. for 16 hrs.
The MRSA strain ATCC BAA-44 and the methicillin-sensitive S. aureus (MSSA) strain ATCC 25923 were used to determine the MIC values of various antimicrobial compounds in the presence of 20 μM Of1. The experiment was conducted similarly to the CLSI MIC determination described previously; however, MHB was supplemented with 40 μM Of1 prior to set up and inoculation. The final concentration of Of1 after inoculation with BAA-44 was 20 μM.
In the case of `Cc1nnc(SCC2=C(C(=O)O)N3C(=O)[C@@H](NC(=O)Cn4cnnn4)[C@H]3SC2)s1` [cefazolin], the fold of potentiation was 32.

The data set is the same for the next values; noted with them: MRSA ATCC BAA-44; in the presence of 20 μM Of1.
`Cc1nnc(SCC2=C(C(=O)O)N3C(=O)[C@@H](NC(=O)Cn4cnnn4)[C@H]3SC2)s1` [cefazolin]: the “MIC (+Of1)” value is 4 µg/mL.
